As usually defined, the IC50 is the concentration that inhibits the measured activity by half.

Where two headings read alike, the source gives them in different places.

Common to all, as to assay type: biochemical
Assay [1] has as its target T1, KDM5A (His-tagged KDM5A 1-797) (Homo sapiens, UniProt P29375).
T1 construct: residues 1-797, C-terminally truncated, N-terminal His6 tag, Sf9 baculovirus, HisTrap purified
T1 sequence (P29375 1-797): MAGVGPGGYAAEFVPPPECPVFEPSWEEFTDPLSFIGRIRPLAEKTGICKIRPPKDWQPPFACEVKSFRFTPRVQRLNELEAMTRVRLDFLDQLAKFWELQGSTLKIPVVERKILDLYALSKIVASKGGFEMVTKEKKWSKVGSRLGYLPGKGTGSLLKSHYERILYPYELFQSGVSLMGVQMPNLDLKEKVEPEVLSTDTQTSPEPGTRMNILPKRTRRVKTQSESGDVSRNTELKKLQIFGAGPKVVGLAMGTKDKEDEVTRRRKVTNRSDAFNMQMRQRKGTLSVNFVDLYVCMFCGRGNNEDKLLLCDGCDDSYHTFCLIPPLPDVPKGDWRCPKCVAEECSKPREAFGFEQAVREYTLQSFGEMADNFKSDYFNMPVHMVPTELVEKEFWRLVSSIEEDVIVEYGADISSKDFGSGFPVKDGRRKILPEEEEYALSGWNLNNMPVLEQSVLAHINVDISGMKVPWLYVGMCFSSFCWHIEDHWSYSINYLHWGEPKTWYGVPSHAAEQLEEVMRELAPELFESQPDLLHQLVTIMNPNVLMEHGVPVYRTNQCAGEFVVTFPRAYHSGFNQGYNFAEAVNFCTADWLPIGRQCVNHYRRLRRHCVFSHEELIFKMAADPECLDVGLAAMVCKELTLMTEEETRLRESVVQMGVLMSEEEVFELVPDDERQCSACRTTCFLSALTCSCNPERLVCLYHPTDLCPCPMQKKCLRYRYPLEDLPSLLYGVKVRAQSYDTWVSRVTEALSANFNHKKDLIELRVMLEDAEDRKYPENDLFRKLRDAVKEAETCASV
Nature of the assay: AlphaScreen H3K4me3 demethylation. The source says:
AlphaScreen H3K4me3 demethylation on KDM5A (His-tagged KDM5A 1-797)
On the technique in general: Bead proximity is the source of the signal in Alpha formats.

The target of assay [2] is T2, LSD1 (His-tagged human full-length LSD1) (Homo sapiens, UniProt O60341).
T2 construct: gene KDM1A
Nature of the assay: MALDI-TOF MS demethylation assay. Conditions: no inhibition at 50 μM; 30 μM H3K4me2 peptide, pH 7.5, 37 °C. The source says:
MALDI-TOF MS demethylation assay on LSD1 (His-tagged human full-length LSD1)

The target in assay [3] is T3, LSD2 (His-tagged ΔN25 human LSD2) (Homo sapiens, UniProt Q8NB78).
T3 construct: gene KDM1B
T3 sequence (Q8NB78 26-822): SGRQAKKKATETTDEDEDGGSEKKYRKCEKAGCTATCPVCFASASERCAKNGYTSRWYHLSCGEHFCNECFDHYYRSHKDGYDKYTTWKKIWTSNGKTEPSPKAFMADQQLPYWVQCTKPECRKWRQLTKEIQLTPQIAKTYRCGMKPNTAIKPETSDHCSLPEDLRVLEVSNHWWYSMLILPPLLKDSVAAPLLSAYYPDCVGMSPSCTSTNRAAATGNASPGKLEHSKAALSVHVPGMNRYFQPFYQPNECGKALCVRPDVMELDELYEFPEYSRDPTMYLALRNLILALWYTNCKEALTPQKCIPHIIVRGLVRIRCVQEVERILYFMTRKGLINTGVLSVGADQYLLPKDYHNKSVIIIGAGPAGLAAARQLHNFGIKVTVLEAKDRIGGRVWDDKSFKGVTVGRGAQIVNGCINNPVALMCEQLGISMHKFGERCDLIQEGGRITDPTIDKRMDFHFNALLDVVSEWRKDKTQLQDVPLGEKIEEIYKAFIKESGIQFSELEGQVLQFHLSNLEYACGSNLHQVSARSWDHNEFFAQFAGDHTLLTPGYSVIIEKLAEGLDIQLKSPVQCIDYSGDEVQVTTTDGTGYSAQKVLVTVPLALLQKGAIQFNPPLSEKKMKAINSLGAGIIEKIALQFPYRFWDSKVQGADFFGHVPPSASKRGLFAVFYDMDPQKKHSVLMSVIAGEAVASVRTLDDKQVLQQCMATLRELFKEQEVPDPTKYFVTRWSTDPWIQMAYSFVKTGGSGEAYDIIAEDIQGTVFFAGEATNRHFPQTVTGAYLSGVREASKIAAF
Put plainly: MALDI-TOF MS demethylation assay. Conditions: no inhibition at 50 μM; 10 μM H3K4me2 peptide, pH 8.5, 37 °C. The text has this:
MALDI-TOF MS demethylation assay on LSD2 (His-tagged ΔN25 human LSD2)

Assay [4] concerns the target T4, KDM5B (His-tagged KDM5B 1-769) (Homo sapiens, UniProt Q9UGL1).
T4 construct: residues 1-769, C-terminally truncated, N-terminal His6 tag, Sf9 baculovirus, HisTrap purified
T4 sequence (Q9UGL1 1-769): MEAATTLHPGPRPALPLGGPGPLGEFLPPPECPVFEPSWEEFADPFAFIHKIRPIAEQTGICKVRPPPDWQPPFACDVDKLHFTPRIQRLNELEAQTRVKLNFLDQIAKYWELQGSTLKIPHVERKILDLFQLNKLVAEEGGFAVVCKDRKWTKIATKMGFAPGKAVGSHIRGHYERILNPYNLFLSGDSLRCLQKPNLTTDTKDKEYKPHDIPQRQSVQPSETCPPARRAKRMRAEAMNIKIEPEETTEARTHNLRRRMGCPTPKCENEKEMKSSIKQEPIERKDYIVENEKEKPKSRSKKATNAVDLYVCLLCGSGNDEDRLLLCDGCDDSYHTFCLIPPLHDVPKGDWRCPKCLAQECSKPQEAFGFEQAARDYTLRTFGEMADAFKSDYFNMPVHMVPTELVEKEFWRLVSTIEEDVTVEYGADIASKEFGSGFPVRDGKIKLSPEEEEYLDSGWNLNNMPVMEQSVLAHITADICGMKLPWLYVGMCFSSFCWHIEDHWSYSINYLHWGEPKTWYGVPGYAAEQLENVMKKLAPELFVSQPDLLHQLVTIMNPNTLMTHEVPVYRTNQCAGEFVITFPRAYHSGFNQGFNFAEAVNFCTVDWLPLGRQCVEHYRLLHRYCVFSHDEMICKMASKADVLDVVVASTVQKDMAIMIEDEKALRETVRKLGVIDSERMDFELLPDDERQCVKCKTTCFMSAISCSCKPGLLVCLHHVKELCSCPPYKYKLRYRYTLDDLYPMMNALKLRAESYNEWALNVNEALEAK
Nature of the assay: MALDI-TOF MS demethylation assay. The text has this:
MALDI-TOF MS demethylation assay on KDM5B (His-tagged KDM5B 1-769)

Assay [5] concerns the target T5, KDM5C (His-tagged KDM5C 1-839) (Homo sapiens, UniProt P41229).
T5 construct: residues 1-839, C-terminally truncated, N-terminal His6 tag, Sf9 baculovirus, HisTrap purified
T5 sequence (P41229 1-839): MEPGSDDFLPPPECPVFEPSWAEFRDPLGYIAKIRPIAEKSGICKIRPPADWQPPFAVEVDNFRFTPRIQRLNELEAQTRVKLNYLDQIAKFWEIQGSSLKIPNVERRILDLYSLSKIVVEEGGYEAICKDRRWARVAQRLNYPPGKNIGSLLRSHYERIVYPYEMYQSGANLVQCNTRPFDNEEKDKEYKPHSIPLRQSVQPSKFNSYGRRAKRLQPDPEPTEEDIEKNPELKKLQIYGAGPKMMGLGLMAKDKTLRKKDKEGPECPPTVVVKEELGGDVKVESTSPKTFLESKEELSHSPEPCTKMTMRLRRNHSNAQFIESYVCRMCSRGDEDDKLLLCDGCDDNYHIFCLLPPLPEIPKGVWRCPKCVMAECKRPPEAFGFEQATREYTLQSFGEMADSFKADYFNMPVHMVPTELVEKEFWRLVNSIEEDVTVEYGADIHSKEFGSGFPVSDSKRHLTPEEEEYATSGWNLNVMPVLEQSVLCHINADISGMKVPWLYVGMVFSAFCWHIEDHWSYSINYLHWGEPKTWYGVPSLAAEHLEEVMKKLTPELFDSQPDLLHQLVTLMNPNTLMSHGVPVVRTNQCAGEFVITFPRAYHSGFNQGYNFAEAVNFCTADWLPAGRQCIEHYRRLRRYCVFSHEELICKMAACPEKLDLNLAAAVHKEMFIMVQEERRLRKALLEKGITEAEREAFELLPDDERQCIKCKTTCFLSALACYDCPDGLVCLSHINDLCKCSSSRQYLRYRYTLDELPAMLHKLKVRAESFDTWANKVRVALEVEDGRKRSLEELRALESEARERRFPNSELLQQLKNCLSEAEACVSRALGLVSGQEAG
Nature of the assay: MALDI-TOF MS demethylation assay. The text has this: MALDI-TOF MS demethylation assay on KDM5C (His-tagged KDM5C 1-839)

Turning to `Cc1cc2nc3ccc(N(C)C)cc3[s+]c2cc1N` [Tolonium Chloride], the IC50 in assay [1] (read-out: IC50 (μM)^a) was 1.7 µM. `CN(C)c1ccc2nc3ccc(=[N+](C)C)cc-3sc2c1` [Methylene Blue]: the IC50 in assay [1] (read-out: IC50 (μM)^a) is 1.1 µM. Still for that read-out and setting: next, `Nc1ccc2cc3ccc(N)cc3nc2c1` [Proflavine Hemisulfate]: 1.8 µM. The compound `C[CH2][Hg][S]c1ccccc1C(=O)O` [Thimerosal] displayed an IC50 in assay [1] of 0.13 µM. For `CC1(C)C(=O)N=C2C1=C(O)C(=O)c1ccccc12` [BVT948], the IC50 in assay [1] (read-out: IC50 (μM)^a) is 2.6 µM. Turning to `O=C1C(SCCO)=C(SCCO)C(=O)c2ccccc21` [NSC95397], the IC50 in assay [1] (read-out: IC50 (μM)^a) is 0.055 µM. As to `Cc1ccc(NC2=CC(=O)c3sc(C)nc3C2=O)cc1` [Ryuvidine], the IC50 was greater than 50000 nM in assay [2]; 1.4 µM in assay [1] (read-out: IC50 (μM)^a); greater than 50000 nM in assay [3]; 26 ± 10 nM in assay [4]; 8730 ± 1800 nM in assay [5]. Regarding `O=[N+]([O-])c1ccc(O)c2ncccc12` [Nitroxoline], the IC50 in assay [1] (read-out: IC50 (μM)^a) was 5 µM.
